One block for each compound: values may come before it. Activity calls are given as the source filed them. The calls are words filed in the database; no cut-off is given here.
Tests used:
[1] = biological target: Sphingosine 1-phosphate receptor 1 (Homo sapiens) (UniProt P21453); assay: Agonist activity at sphingosine-1-phosphate receptor in human SH-SY5Y cells assessed as increase in cAMP level at EC10 by direct immunoassay; assay type: functional, cell-based
SH-SY5Y [2] = assay: Effect on IL2 mRNA expression in human SH-SY5Y cells at EC10 by qPCR method relative to beta-actin; assay type: functional
SH-SY5Y [3] = assay: Effect on BCL2 mRNA expression in human SH-SY5Y cells at EC10 by qPCR method relative to beta-actin; assay type: functional
SH-SY5Y [4] = assay: Effect on ICAM1 mRNA expression in human SH-SY5Y cells at EC10 by qPCR method relative to beta-actin; assay type: functional
SH-SY5Y [5] = assay: Effect on EDNRA mRNA expression in human SH-SY5Y cells at EC10 by qPCR method relative to beta-actin; assay type: functional
SH-SY5Y [6] = assay: Effect on JUN mRNA expression in human SH-SY5Y cells at EC10 by qPCR method relative to beta-actin; assay type: functional
SH-SY5Y [7] = assay: Effect on STAT3 mRNA expression in human SH-SY5Y cells at EC10 by qPCR method relative to beta-actin; assay type: functional
SH-SY5Y [8] = assay: Effect on NOS2 mRNA expression in human SH-SY5Y cells at EC10 by qPCR method relative to beta-actin; assay type: functional
SH-SY5Y [9] = assay: Effect on TSHR mRNA expression in human SH-SY5Y cells at EC10 by qPCR method relative to beta-actin; assay type: functional
SH-SY5Y [10] = assay: Effect on FGF2 mRNA expression in human SH-SY5Y cells at EC10 by qPCR method relative to beta-actin; assay type: functional
SH-SY5Y [11] = assay: Effect on AKT1 mRNA expression in human SH-SY5Y cells at EC10 by qPCR method relative to beta-actin; assay type: functional
SH-SY5Y [12] = assay: Effect on PIK3CG mRNA expression in human SH-SY5Y cells at EC10 by qPCR method relative to beta-actin; assay type: functional
SH-SY5Y [13] = assay: Effect on AGTR2 mRNA expression in human SH-SY5Y cells at EC10 by qPCR method relative to beta-actin; assay type: functional
U-118-MG [14] = assay: Effect on IFNG mRNA expression in human U118MG cells at EC10 by qPCR method relative to beta-actin; assay type: functional
U-118-MG [15] = assay: Effect on IL2 mRNA expression in human U118MG cells at EC10 by qPCR method relative to beta-actin; assay type: functional
U-118-MG [16] = assay: Effect on JUN mRNA expression in human U118MG cells at EC10 by qPCR method relative to beta-actin; assay type: functional
U-118-MG [17] = assay: Effect on CYP19A1 mRNA expression in human U118MG cells at EC10 by qPCR method relative to beta-actin; assay type: functional
U-118-MG [18] = assay: Effect on GNAS mRNA expression in human U118MG cells at EC10 by qPCR method relative to beta-actin; assay type: functional
U-118-MG [19] = assay: Effect on NOS2 mRNA expression in human U118MG cells at EC10 by qPCR method relative to beta-actin; assay type: functional
U-118-MG [20] = assay: Effect on FGF2 mRNA expression in human U118MG cells at EC10 by qPCR method relative to beta-actin; assay type: functional
U-118-MG [21] = assay: Effect on AKT1 mRNA expression in human U118MG cells at EC10 by qPCR method relative to beta-actin; assay type: functional
U-118-MG [22] = assay: Effect on PIK3CG mRNA expression in human U118MG cells at EC10 by qPCR method relative to beta-actin; assay type: functional
U-118-MG [23] = assay: Effect on DRD2 mRNA expression in human U118MG cells at EC10 by qPCR method relative to beta-actin; assay type: functional
SK-N-SH [24] = assay: Effect on FASLG mRNA expression in human SK-N-SH cells at EC10 by qPCR method relative to beta-actin; assay type: functional
SK-N-SH [25] = assay: Effect on ICAM1 mRNA expression in human SK-N-SH cells at EC10 by qPCR method relative to beta-actin; assay type: functional
SK-N-SH [26] = assay: Effect on VCAM1 mRNA expression in human SK-N-SH cells at EC10 by qPCR method relative to beta-actin; assay type: functional
SK-N-SH [27] = assay: Effect on MMP9 mRNA expression in human SK-N-SH cells at EC10 by qPCR method relative to beta-actin; assay type: functional
SK-N-SH [28] = assay: Effect on FOXP3 mRNA expression in human SK-N-SH cells at EC10 by qPCR method relative to beta-actin; assay type: functional
SK-N-SH [29] = assay: Effect on MYC mRNA expression in human SK-N-SH cells at EC10 by qPCR method relative to beta-actin; assay type: functional
SK-N-SH [30] = assay: Effect on NFKB1 mRNA expression in human SK-N-SH cells at EC10 by qPCR method relative to beta-actin; assay type: functional
SK-N-SH [31] = assay: Effect on STAT3 mRNA expression in human SK-N-SH cells at EC10 by qPCR method relative to beta-actin; assay type: functional
SK-N-SH [32] = assay: Effect on ADCY5 mRNA expression in human SK-N-SH cells at EC10 by qPCR method relative to beta-actin; assay type: functional
SK-N-SH [33] = assay: Effect on ADRB2 mRNA expression in human SK-N-SH cells at EC10 by qPCR method relative to beta-actin; assay type: functional
SK-N-SH [34] = assay: Effect on COL1A1 mRNA expression in human SK-N-SH cells at EC10 by qPCR method relative to beta-actin; assay type: functional
SK-N-SH [35] = assay: Effect on TSHR mRNA expression in human SK-N-SH cells at EC10 by qPCR method relative to beta-actin; assay type: functional
SK-N-SH [36] = assay: Effect on S1PR3 mRNA expression in human SK-N-SH cells at EC10 by qPCR method relative to beta-actin; assay type: functional
SK-N-SH [37] = assay: Effect on FGF2 mRNA expression in human SK-N-SH cells at EC10 by qPCR method relative to beta-actin; assay type: functional
SK-N-SH [38] = assay: Effect on AKT1 mRNA expression in human SK-N-SH cells at EC10 by qPCR method relative to beta-actin; assay type: functional
SK-N-SH [39] = assay: Effect on CFLAR mRNA expression in human SK-N-SH cells at EC10 by qPCR method relative to beta-actin; assay type: functional
SH-SY5Y [40] = assay: Effect on MAG mRNA expression in human SH-SY5Y cells at EC10 by qPCR method relative to beta-actin; assay type: functional
SH-SY5Y [41] = assay: Effect on CCL3 mRNA expression in human SH-SY5Y cells at EC10 by qPCR method relative to beta-actin; assay type: functional
U-118-MG [42] = assay: Effect on CCL2 mRNA expression in human U118MG cells at EC10 by qPCR method relative to beta-actin; assay type: functional
SK-N-SH [43] = assay: Effect on CCL3 mRNA expression in human SK-N-SH cells at EC10 by qPCR method relative to beta-actin; assay type: functional

Chain of Sphingosine 1-phosphate receptor 1 (Homo sapiens) (P21453 whole entry): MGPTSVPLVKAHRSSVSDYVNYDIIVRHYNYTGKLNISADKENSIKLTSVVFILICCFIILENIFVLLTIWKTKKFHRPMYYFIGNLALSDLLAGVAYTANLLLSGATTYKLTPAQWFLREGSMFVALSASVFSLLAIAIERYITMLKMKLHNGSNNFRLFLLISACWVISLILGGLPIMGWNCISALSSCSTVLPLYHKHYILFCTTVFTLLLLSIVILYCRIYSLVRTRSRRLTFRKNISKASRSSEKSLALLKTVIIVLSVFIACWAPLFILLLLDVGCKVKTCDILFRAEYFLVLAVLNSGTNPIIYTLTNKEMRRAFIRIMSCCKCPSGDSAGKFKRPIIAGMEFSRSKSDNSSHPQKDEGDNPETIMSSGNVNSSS

Activity [1]: Active
SMILES: CCCCCCCCn1nnnc1CCC(N)(CO)CO.Cl
fold change (FC) (SH-SY5Y [2]): -3.9071
fold change (FC) (SH-SY5Y [3]): -4.8227
fold change (FC) (SH-SY5Y [4]): -7.3035
fold change (FC) (SH-SY5Y [5]): 3.6859
fold change (FC) (SH-SY5Y [6]): -4.7214
fold change (FC) (SH-SY5Y [7]): -2.8938
fold change (FC) (SH-SY5Y [8]): -4.7071
fold change (FC) (SH-SY5Y [9]): 4.7801
fold change (FC) (SH-SY5Y [10]): -3.8516
fold change (FC) (SH-SY5Y [11]): -4.1766
fold change (FC) (SH-SY5Y [12]): -3.5167
fold change (FC) (SH-SY5Y [13]): 8.9431
fold change (FC) (U-118-MG [14]): -4.5394
fold change (FC) (U-118-MG [15]): -4.2107
fold change (FC) (U-118-MG [16]): -5.0916
fold change (FC) (U-118-MG [17]): -3.3614
fold change (FC) (U-118-MG [18]): -2.9212
fold change (FC) (U-118-MG [19]): -4.0673
fold change (FC) (U-118-MG [20]): -4.6964
fold change (FC) (U-118-MG [21]): -2.6892
fold change (FC) (U-118-MG [22]): -4.5938
fold change (FC) (U-118-MG [23]): -2.5398
fold change (FC) (SK-N-SH [24]): -2.9626
fold change (FC) (SK-N-SH [25]): -9.5591
fold change (FC) (SK-N-SH [26]): -5.4618
fold change (FC) (SK-N-SH [27]): -5.1049
fold change (FC) (SK-N-SH [28]): -3.4447
fold change (FC) (SK-N-SH [29]): -4.315
fold change (FC) (SK-N-SH [30]): -6.9253
fold change (FC) (SK-N-SH [31]): -5.0696
fold change (FC) (SK-N-SH [32]): -4.4983
fold change (FC) (SK-N-SH [33]): -4.3526
fold change (FC) (SK-N-SH [34]): -3.842
fold change (FC) (SK-N-SH [35]): 5.2621
fold change (FC) (SK-N-SH [36]): -4.0052
fold change (FC) (SK-N-SH [37]): -6.7243
fold change (FC) (SK-N-SH [38]): -5.3124
fold change (FC) (SK-N-SH [39]): -3.3101

Activity [1]: Active
SMILES: CCCCCCCCc1ccc(CCC(N)(CO)CO)cc1 [FINGOLIMOD]
fold change (FC) (SH-SY5Y [40]): 4.3772
fold change (FC) (SH-SY5Y [41]): -4.8232
fold change (FC) (SH-SY5Y [3]): -4.2945
fold change (FC) (SH-SY5Y [4]): -6.0839
fold change (FC) (SH-SY5Y [5]): 6.8804
fold change (FC) (SH-SY5Y [6]): -3.5677
fold change (FC) (SH-SY5Y [7]): -5.5022
fold change (FC) (SH-SY5Y [8]): -3.9518
fold change (FC) (SH-SY5Y [9]): -4.0629
fold change (FC) (SH-SY5Y [10]): -8.2392
fold change (FC) (SH-SY5Y [11]): -9.4316
fold change (FC) (SH-SY5Y [12]): -5.6081
fold change (FC) (SH-SY5Y [13]): 3.2887
fold change (FC) (U-118-MG [42]): -5.2826
fold change (FC) (U-118-MG [14]): -5.5428
fold change (FC) (U-118-MG [16]): -3.0183
fold change (FC) (U-118-MG [17]): -4.301
fold change (FC) (U-118-MG [18]): -2.939
fold change (FC) (U-118-MG [19]): -5.6458
fold change (FC) (U-118-MG [20]): -4.2052
fold change (FC) (U-118-MG [21]): -2.5763
fold change (FC) (U-118-MG [22]): -3.7491
fold change (FC) (U-118-MG [23]): -2.6579
fold change (FC) (SK-N-SH [43]): -4.0682
fold change (FC) (SK-N-SH [24]): -3.5415
fold change (FC) (SK-N-SH [25]): -4.0965
fold change (FC) (SK-N-SH [26]): -7.0341
fold change (FC) (SK-N-SH [27]): -13.1489
fold change (FC) (SK-N-SH [28]): -4.444
fold change (FC) (SK-N-SH [29]): -8.3361
fold change (FC) (SK-N-SH [30]): -3.6601
fold change (FC) (SK-N-SH [31]): -8.0243
fold change (FC) (SK-N-SH [32]): -5.1851
fold change (FC) (SK-N-SH [33]): -6.7945
fold change (FC) (SK-N-SH [34]): -3.7305
fold change (FC) (SK-N-SH [35]): -4.4134
fold change (FC) (SK-N-SH [37]): -7.3456
fold change (FC) (SK-N-SH [38]): -12.2684
fold change (FC) (SK-N-SH [39]): -11.0378

Activity [1]: Active
SMILES: CCCCCCCCn1nnnc1-c1ccc(C(O)CC(N)(CO)CO)cc1.Cl (stereo unspecified)
fold change (FC) (SH-SY5Y [40]): 2.631
fold change (FC) (SH-SY5Y [41]): -2.4869
fold change (FC) (SH-SY5Y [2]): -4.4248
fold change (FC) (SH-SY5Y [4]): -3.763
fold change (FC) (U-118-MG [42]): -5.2393
fold change (FC) (U-118-MG [15]): -4.5247
fold change (FC) (U-118-MG [18]): -3.2119
fold change (FC) (SK-N-SH [43]): -5.716
fold change (FC) (SK-N-SH [30]): -3.6999
fold change (FC) (SK-N-SH [32]): -4.6187
fold change (FC) (SK-N-SH [36]): -4.5159

From ChEMBL document CHEMBL3872249, “Computer design, synthesis, and bioactivity analyses of drugs like fingolimod used in the treatment of multiple sclerosis” (Bioorg Med Chem, 2017)
